Read-outs that look alike come from different tables or passages of the source.
Experiments:
[1] = DISTOL-1 randomized Phase IIB study of oral treprostinil diethanolamine versus placebo, digital ulcers in systemic sclerosis; format: in vivo, human
Description: Primary: To assess the effect of oral treprostinil in reducing net ulcer burden compared to placebo in patients with systemic sclerosis (SSc) as measured by the change in net ulcer burden from Baseline to Follow-up between treatment groups at 20 weeks. […] Target enrollment of […] patients to complete 128 subjects. […] Primary analysis: effect of treprostinil versus placebo on change in net ulcer burden at Week 20 evaluated using non-parametric analysis of covariance within the framework of the extended Cochran-Mantel-Haenszel test.

[2] = for subjects who tolerated the dose: 10 SSc patients
Description: During a phase I PK trial of oral treprostinil in SSc patients, the goal was to quantify changes in perfusion as assessed by laser Doppler imaging (LDI) and to determine whether improvements in perfusion correlated with drug concentration.
10 SSc patients with recent or active DU participated in the study.
Dosing: Oral treprostinil titrated up to 4 mg twice daily (BID) as tolerated over 6-8 weeks. Pharmokinetics (PK) and laser Doppler imaging (LDI) assessments: performed when subjects achieved the 2 mg and 4 mg (or maximally tolerated dose) doses. […] 8 serial measures of digital perfusion and drug concentration were obtained over 12 hours at each of the 2 study visits.
Repeated measures analyses were performed using random effects model. Dependent variables were perfusion and skin temperature. The predictor of interest was log-transformed drug concentration. Covariates with p-values less than 0.15 were kept in the model. All data was used, across time points, visits, and hands.

[3] = 4 mg visit (but not the 2 mg visit), adjusted for time points of Doppler assessment
[4] = Subject 6, 4 mg visit, baseline at drug trough prior to administration of 4 mg dose
[5] = Subject 6, 4 mg visit, twelve hours after dosing

With `CCCCC[C@H](O)CC[C@@H]1[C@H]2Cc3cccc(OCC(=O)O)c3C[C@H]2C[C@H]1O.OCCNCCO` [treprostinil diethanolamine, Treprostinil diethanolamine] the “change in net ulcer burden at Week 20” value ([1]; ACA negative subset of patients) was “statistically significant changes were observed”, the “Time to Cardinal Ulcer Healing (mean days)” value ([1]; Active n = 71) was 76.3 ± 35 days and the “Time to all Ulcers Healed (mean days)” value ([1]; Active n = 71) was 90.2 ± 35.6 days. For the same molecule, the “Mean # of new ulcers” value ([1]; Active n = 71, listed under new ulcers formed after Week 5) was 0.9, the “All Ulcers Healed” value ([1]; Active n = 71, number (%)) was 35 (49%) and the “Any new ulcers formed after Week 5? At least one new” value ([1]; Active n = 71, number (%)) was 27 (38%). For the same molecule, the “Any new ulcers formed after Week 5? No new” value ([1]; Active n = 71, number (%)) was 30 (42%), the “Any new ulcers formed during study? At least one new” value ([1]; Active n = 71, number (%)) was 39 (55%) and the “Any new ulcers formed during study? No new” value ([1]; Active n = 71, number (%)) was 24 (34%). The “Cardinal Ulcer Healed” value ([1]; Active n = 71, number (%)) was 44 (62%), the “Discontinuations: Adverse Event” value ([1]; Active n = 72, number (%) of subjects) was 9 (13%) and the “Mean Change in Net Ulcer Burden Week 20 P value” ([1]; Subgroup (ACA) Negative (n = 40/34)) was 0.01. For the same molecule, the “Mean Change in Net Ulcer Burden Week 20 P value” ([1]; Subgroup (ACA) Positive (n = 19/29)) was 0.97, the “Mean Change in Net Ulcer Burden Week 20 P value” ([1]; Subgroup (ATA) Negative (n = 32/38)) was 0.58 and the “Mean Change in Net Ulcer Burden Week 20 P value” ([1]; Subgroup (ATA) Positive (n = 27/22)) was 0.06. For the same molecule, the “Mean Change in Net Ulcer Burden Week 20 P value” ([1]; Subgroup >2 active ulcers at Baseline (n = 10/10)) was 0.51, the “Mean Change in Net Ulcer Burden Week 20 P value” ([1]; Subgroup ACA Negative/ATA Positive (n = 20/15)) was 0.013 and the “Mean Change in Net Ulcer Burden Week 20 P value” ([1]; Subgroup Diffuse SSc (n = 31/21)) was 0.32. The “Mean Change in Net Ulcer Burden Week 20 P value” ([1]; Subgroup Limited SSc (n = 42/55 Active/Placebo)) was 0.42, the “Mean Change in Net Ulcer Burden Week 20 P value” ([1]; Subgroup No PDEI background (n = 59/63)) was 0.21 and the “Mean Change in Net Ulcer Burden Week 20 P value” ([1]; Subgroup PDEI background (n = 12/13)) was 0.90. The “Mean Change in Net Ulcer Burden Week 20 P value” ([1]; Subgroup ≦2 active ulcers at Baseline (n = 61/66)) was 0.10, the “Patient Global and Digital Ulcer pain VAS” value ([1]; Week 20) was “Improvement not reaching statistical significance” and the “symptomatic relief of pain and functional deficits associated with ischemic vascular disease” value ([1]; patients with scleroderma and digital ulcers, orally administered) was “provided symptomatic relief of pain”. The “change in net ulcer burden at Week 20, primary analysis” value ([1]; total population, versus placebo) was “did not achieve statistical significance”, the “subjects who tolerated the dose” value ([2]; 2 mg BID by the first PK visit) was “Nine” and the “subjects who tolerated the dose” value ([2]; 4 mg BID by the 2nd PK visit) was 6 subjects. The “association of digital skin temperature with log-transformed plasma concentration” value [2, 3] was “positively associated”, the “association of perfusion with log-transformed plasma concentration” value [2, 3] was “positively associated” and the “perfusion versus drug exposure” value ([2]; AUCs, FIG. 4) was “increase in perfusion was observed with an increase in drug exposure”. The “plasma concentration versus dose” value ([2]; AUCs, FIG. 4) was “increase in plasma concentration was observed with an increase in dose”, the “mean perfusion (laser Doppler imaging)” value [2, 4] was 89.3 units and the skin temperature [2, 4] was 25 °C. The “perfusion (laser Doppler imaging)” value [2, 5] was 298.3 units, the skin temperature [2, 5] was 32 °C and the adverse effects ([2]; titrated up to 4 mg BID over 6-8 weeks) was “transient and typical of prostacyclin therapy”.

Source: patent US20120004307A1, “ORAL TREATMENT OF DIGITAL ISCHEMIC LESIONS” (priority 2010, published 2012)
